Experiments:
[1] = target: T1, EED protein (His6-tagged full-length) binding to H3K27me3 polypeptide (Homo sapiens, UniProt O75530); assay: AlphaScreen evaluation of blocking the binding of EED to H3K27Me3; details: EED 60 nM, biotinylated H3K27me3 75 nM, 30 minutes incubation
T1 construct: His6-tagged full-length EED protein (441 amino acids)
Method: Firstly, compound solutions of different concentration gradients were prepared. Compound powder was dissolved in DMSO to prepare a mother liquor. 1.5 μl of the mother liquor of the compound was taken and added into 198.5 μl of a reaction buffer (25 mM HEPES (pH 8.0), 50 mM NaCl, 0.015% Tween 20, 0.5% BSA). The mixture was mixed uniformly. Then a 3-fold series dilution was carried out with the above-mentioned buffer containing 0.75% DMSO. 9 different test concentrations were provided for one same compound. 5 μL of compounds of different concentration gradients were taken and added into the ProxiPlate-384 Plus, White detection plate (PerkinElmer, 6008280) and two replicates in parallel were provided for each concentration gradient.
Secondly, a reaction for blocking the binding was carried out. The above-mentioned buffer was used to dilute His6-tagged full-length EED protein (441 amino acids) to 60 nM and biotinylated polypeptide fragment H3K27me3 (amino acids at positions 19-33) (Biotinylated-H3K27me3) to 75 nM. 5 μl of the polypeptide fragment at the concentration of 75 nM and 5 µl of the protein at the concentration of 60 nM were transferred to the detection wells containing the compound, respectively. The detection plate was sealed with the film and incubation was carried out at room temperature for 30 minutes.
Finally, the detection was carried out with the AlphaScreen method. Prior use, nickel chelate receptor beads and streptavidin donor beads (at the ratio of 1:1, Perkin Elmer, product number 6760619M) were mixed with the above-mentioned reaction buffer. Then 5 μl of the above-mentioned pre-mixed detection solution was added to each of the detection wells. The donor beads and receptor beads were both at a final concentration of 5 μg/mL. The detection plate was covered and sealed with tinfoil and placed in the dark at room temperature for 1 hour. The signal was read using the AlphaScreen detector on the Spectra max i3. AlphaScreen signals were standardlized based on the readings obtained from positive controls (maximum signal controls) and negative controls (minimum signal controls) to give the inhibition rates for compounds at different concentrations, and afterwards non-linear regression analysis was carried out using GraphPad Prism 5, inhibition curves were made based on the Dose-Response equation of Y=Bottom+(Top−Bottom)/(1+10^((Log IC50−X)*HillSlope)) and the IC50 values of each compound were obtained. […]

[2] = test system: trimethylation level of histone H3K27 in G401 cells; assay: ELISA (H3K27 trimethylation) analysis in G401 cells; assay type: cell-based; details: Homo sapiens, G-401, 72 hours, H3K27me3 standardized to H3
How it was run: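 Cells exposed 72 h to 10-point 3-fold dilutions, top 10 μM, 0.5% final DMSO. Acid-extracted histones assayed by ELISA (ECL) for H3K27me3, normalized to total H3 and to DMSO control; IC50 from dose-response fit.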

KARPAS-422 cells = assay: Cell proliferation analysis, KARPAS-422, 13 days, CellTiter-Glo; assay type: cell-based; details: Homo sapiens, 312 h
How it was run: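 KARPAS-422 cells were treated with PRC2 inhibitors over 9 three-fold dilutions from 10 μM top (0.5% DMSO, duplicates) in RPMI-1640 with 15% FBS at 37 °C. Every 3–4 days cells were counted and reseeded at 1×10^4/well with fresh compound. Viability was read by CellTiter-Glo luminescence on day 13.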

T1 sequence (O75530 whole entry): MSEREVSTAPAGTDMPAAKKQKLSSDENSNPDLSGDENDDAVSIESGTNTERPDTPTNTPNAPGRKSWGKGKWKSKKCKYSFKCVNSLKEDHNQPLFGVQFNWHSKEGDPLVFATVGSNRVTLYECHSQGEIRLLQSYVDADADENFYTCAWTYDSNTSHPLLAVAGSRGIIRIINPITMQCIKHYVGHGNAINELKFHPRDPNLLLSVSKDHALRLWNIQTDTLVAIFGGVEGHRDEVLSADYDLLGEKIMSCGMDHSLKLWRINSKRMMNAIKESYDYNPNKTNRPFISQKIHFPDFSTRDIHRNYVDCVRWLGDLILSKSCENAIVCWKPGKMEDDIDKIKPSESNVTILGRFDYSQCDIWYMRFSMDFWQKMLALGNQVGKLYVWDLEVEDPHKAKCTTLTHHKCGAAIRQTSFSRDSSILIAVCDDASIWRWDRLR

Structure (SMILES) | IC50 [1] | IC50 [2] | IC50 (KARPAS-422 cells)
CCOC(=O)c1cnc2c(-c3cnc(NCc4c(F)ccc5c4CCO5)n4cnnc34)cc(F)cn12 [Ethyl 6-fluoro-8-(5-(((5-fluoro-2,3-dihydrobenzofuran-4-yl)methyl)amino)-[1,2,4]triazolo[4,3-c]pyrimidin-8-yl)imidazo[1,2-a]pyridine-3-carboxylate] | 0.0221 µM | 0.047 µM | –
Cc1ccc(-c2cnc(NCc3c(F)ccc4c3CCO4)n3cnnc23)c2ncc(F)n12 [N-((5-fluoro-2,3-dihydrobenzofuran-4-yl)methyl)-8-(3-fluoro-5-methylimidazo[1,2-a]pyridin-8-yl)-[1,2,4]triazolo[4,3-c]pyrimidin-5-amine] | 0.0058 µM | 0.0061 µM | –
O=S1(=O)C=c2cc(-c3cnc(NCc4c(F)ccc5c4[C@H]4C[C@H]4O5)n4cnnc34)ccc2=C1F [1-fluoro-5-(5-((((1aR,6bR)-5-fluoro-1a,6b-dihydro-1H-cyclopropa[b]benzofuran-6-yl)methyl)amino)-[1,2,4]triazolo[4,3-c]pyrimidin-8-yl)benzo[c]thiophene 2,2-dioxide] | 0.186 µM | 0.075 µM | –
CC1=Cc2cc(-c3cnc(NCc4c(F)ccc5c4CCO5)n4cnnc34)cc(Cl)c2S1(=O)=O [7-chloro-5-(5-(((5-fluoro-2,3-dihydrobenzofuran-4-yl)methyl)amino)-[1,2,4]triazolo[4,3-c]pyrimidin-8-yl)-2-methylbenzo[b]thiophene 1,1-dioxide] | 0.0039 µM | 0.026 µM | –
Fc1ccc2c(c1CNc1ncc(-c3cccc4cccnc34)c3nncn13)CCO2 [N-((5-fluoro-2,3-dihydrobenzofuran-4-yl)methyl)-8-(quinolin-8-yl)-[1,2,4]triazolo[4,3-c]pyrimidin-5-amine] | 0.0051 µM | 0.0029 µM | –
CCOC(=O)c1c(O)nc2c(-c3cnc(NCc4c(F)ccc5c4CCO5)n4cnnc34)cccn12 [Ethyl 8-(5-(((5-fluoro-2,3-dihydrobenzofuran-4-yl)methyl)amino)-[1,2,4]triazolo[4,3-c]pyrimidin-8-yl)-2-hydroxyimidazo[1,2-a]pyridine-3-carboxylate] | 0.0221 µM | 0.068 µM | –
Fc1ccc2c(c1CNc1ncc(-c3cnc4nccn4c3)c3nncn13)CCO2 [N-((5-fluoro-2,3-dihydrobenzofuran-4-yl)methyl)-8-(imidazo[1,2-a]pyrimidin-6-yl)-[1,2,4]triazolo[4,3-c]pyrimidin-5-amine] | 0.0049 µM | 0.0129 µM | –
O=C(O)c1cnc2c(-c3cnc(NCc4c(F)ccc5c4CCO5)n4cnnc34)cccn12 [8-(5-(((5-fluoro-2,3-dihydrobenzofuran-4-yl)methyl)amino)-[1,2,4]triazolo[4,3-c]pyrimidin-8-yl)imidazo[1,2-a]pyridine-3-carboxylic acid] | 0.0051 µM | 0.329 µM | –
Fc1ccc2c(c1CNc1ncc(-c3cc(Cl)cn4cc(C(F)(F)F)nc34)c3nncn13)CCO2 | 0.0096 µM | 0.089 µM | –
CCOC(=O)c1c(C(F)(F)F)nc2c(-c3cnc(NCc4c(F)ccc5c4CCO5)n4cnnc34)cccn12 [Ethyl 8-(5-(((5-fluoro-2,3-dihydrobenzofuran-4-yl)methyl)amino)-[1,2,4]triazolo[4,3-c]pyrimidin-8-yl)-2-(trifluoromethyl)imidazo[1,2-a]pyridine-3-carboxylate] | 0.029 µM | 0.202 µM | –
Fc1ccc2c(c1CNc1ncc(-c3ccc(Cn4ccnc4)n4ncnc34)c3nncn13)CCO2 [8-(5-((1H-imidazol-1-yl)methyl)-[1,2,4]triazolo[1,5-a]pyridin-8-yl)-N-((5-fluoro-2,3-dihydrobenzofuran-4-yl)methyl)-[1,2,4]triazolo[4,3-c]pyrimidin-5-amine] | – | 0.0006 µM | 0.0009 µM
Fc1ccc2c(c1CNc1ncc(-c3cccn4c(F)cnc34)c3nncn13)CCO2 | 0.0092 µM | 0.0035 µM | –

Continued, values first:

IC50 [1] | IC50 [2] | IC50 (KARPAS-422 cells) | Structure (SMILES)
0.0912 µM | 0.091 µM | – | CCOC(=O)c1c(O)nc2c(-c3cnc(NCc4c(F)ccc5c4CCO5)n4cnnc34)cc(F)cn12 [Ethyl 6-fluoro-8-(5-(((5-fluoro-2,3-dihydrobenzofuran-4-yl)methyl)amino)-[1,2,4]triazolo[4,3-c]pyrimidin-8-yl)-2-hydroxyimidazo[1,2-a]pyridine-3-carboxylate]
0.0052 µM | – | – | Fc1ccc2c(c1CNc1ncc(C3=CC=CN4CCN=C34)c3nncn13)CCO2 [8-(2,3-dihydroimidazo[1,2-a]pyridin-8-yl)-N-((5-fluoro-2,3-dihydrobenzofuran-4-yl)methyl)-[1,2,4]triazolo[4,3-c]pyrimidin-5-amine]
0.0157 µM | 0.041 µM | – | Cc1cc(-c2cnc(NCc3c(F)ccc4c3CCO4)n3cnnc23)c2nc(C(F)(F)F)cn2c1 [N-((5-fluoro-2,3-dihydrobenzofuran-4-yl)methyl)-8-(6-methyl-2-(trifluoromethyl)imidazo[1,2-a]pyridin-8-yl)-[1,2,4]triazolo[4,3-c]pyrimidin-5-amine]
0.0452 µM | 0.087 µM | – | CCOC(=O)c1c(C)nc2c(-c3cnc(NCc4c(F)ccc5c4CCO5)n4cnnc34)cc(F)cn12 [Ethyl 6-fluoro-8-(5-(((5-fluoro-2,3-dihydrobenzofuran-4-yl)methyl)amino)-[1,2,4]triazolo[4,3-c]pyrimidin-8-yl)-2-methylimidazo[1,2-a]pyridine-3-carboxylate]
0.0054 µM | 0.004 µM | – | Cc1ccc(-c2cnc(NCc3c(F)ccc4c3CCO4)n3cnnc23)c2ncc(C(=O)O)n12 [8-(5-(((5-fluoro-2,3-dihydrobenzofuran-4-yl)methyl)amino)-[1,2,4]triazolo[4,3-c]pyrimidin-8-yl)-5-methylimidazo[1,2-a]pyridine-3-carboxylic acid]
0.0464 µM | 0.17 µM | – | Fc1ccc2c(c1CNc1ncc(-c3c(C(F)(F)F)ccc4nsnc34)c3nncn13)CCO2 [N-((5-fluoro-2,3-dihydrobenzofuran-4-yl)methyl)-8-(5-(trifluoromethyl)benzo[c][1,2,5]thiadiazol-4-yl)-[1,2,4]triazolo[4,3-c]pyrimidin-5-amine]
– | 0.0012 µM | 0.0009 µM | Cc1ccc(-c2cnc(NCc3c(F)ccc4c3[C@H]3C[C@H]3O4)n3cnnc23)c2nccn12 [N-(((1aR,6bR)-5-fluoro-1a,6b-dihydro-1H-cyclopropa[b]benzofuran-6-yl)methyl)-8-(5-methylimidazo[1,2-a]pyridin-8-yl)-[1,2,4]triazolo[4,3-c]pyrimidin-5-amine]
– | 0.0012 µM | 0.0017 µM | COc1cc(-c2cnc(NCc3c(F)ccc4c3CCO4)n3cnnc23)c2ncnn2c1 [N-((5-fluoro-2,3-dihydrobenzofuran-4-yl)methyl)-8-(6-methoxy-[1,2,4]triazolo[1,5-a]pyridin-8-yl)-[1,2,4]triazolo[4,3-c]pyrimidin-5-amine]
– | 0.0024 µM | 0.0032 µM | CC(=O)NCc1cnc2c(-c3cnc(NCc4c(F)ccc5c4CCO5)n4cnnc34)ccc(C)n12 [N-((8-(5-(((5-fluoro-2,3-dihydrobenzofuran-4-yl)methyl)amino)-[1,2,4]triazolo[4,3-c]pyrimidin-8-yl)-5-methylimidazo[1,2-a]pyridin-3-yl)methyl)acetamide]
– | 0.0106 µM | 0.007 µM | Fc1ccc2c(c1CNc1ncc(-c3ccc(C(F)(F)F)n4ccnc34)c3nncn13)CCO2 [N-((5-fluoro-2,3-dihydrobenzofuran-4-yl)methyl)-8-(5-(trifluoromethyl)imidazo[1,2-a]pyridin-8-yl)-[1,2,4]triazolo[4,3-c]pyrimidin-5-amine]
– | 0.0011 µM | 0.0008 µM | Fc1ccc2c(c1CNc1ncc(-c3ccc(N4CCC(N5CCOCC5)CC4)n4ncnc34)c3nncn13)CCO2 [N-((5-fluoro-2,3-dihydrobenzofuran-4-yl)methyl)-8-(5-(4-morpholinopiperidin-1-yl)-[1,2,4]triazolo[1,5-a]pyridin-8-yl)-[1,2,4]triazolo[4,3-c]pyrimidin-5-amine]
